Measured values taken from US20230000835A1, “LYSINE-SPECIFIC HISTONE DEMETHYLASE INHIBITORS FOR THE TREATMENT OF MYELOPROLIFERATIVE NEOPLASMS” (Imago Biosciences, Inc., priority 2019, published 2023).
Structures can show the parent of a compound that is named as a salt.

Legend:
[1] = system: patients with high-risk MF; test: Phase 1/2a clinical study in myelofibrosis: MPN-SAF / MPN-10 symptom score; assay type: in vivo, human
Description: In certain embodiments, said patient-reported survey is the Myeloproliferative Neoplasm Symptom Assessment Form (MPN-SAF). The MPN-SAF is a validated clinical assessment form for the most common symptoms of myeloproliferative neoplasms, in which patients self-reports their score, on a scale of 1-10, of various common symptoms, where 1 is the most favorable or the symptom is absent, and 10 is the least favorable or the symptom is the worst imaginable. See, e.g., Scherber R et al., The Myeloproliferative Neoplasm Symptom Assessment Form (MPN-SAF): International Prospective Validation and Reliability Trial in 402 patients,” Blood 118(2):401-08 (2014). Either the full or abbreviated forms may be administered to the patient. In the abbreviated version, a “total symptom score” (TSS) may be calculated from the ten most clinically relevant symptoms from the 17-item MPN-SAF: worst fatigue, concentration, early satiety, inactivity, night sweats, itching, bone pain, abdominal discomfort, weight loss, and fever. The MPN-SAF TSS thus has a possible range of 0 to 100. Quality of life scores are defined as “clinically deficient” when they rate as at least 4 of 10; “moderate” if symptoms are rated as ≥4 of 10 or ≤6 of 10; and “severe” if symptoms are rated as ≥7 of 10. For patients who complete at least six of these 10 items on the BFI and MPN-SAF, the MPN TSS is computed as the average of the observed items multiplied by 10 to achieve a 0-to-100 scale. See, e.g., Emanuel R M et al., “Myeloproliferative neoplasm (MPN) symptom assessment form total symptom score: prospective international assessment of an abbreviated symptom burden scoring system among patients with MPNs,” J Clin Oncol 30(33):4098-103 (2012). […]
The Phase 1/2A portion of the study assessed: the safety of the original starting dose, 0.25 mg/kg/d; an 85-day duration of treatment with a subsequent washout period of up to 28 days; and, pharmacokinetic and drug concentration measurements. […]

[2] = system: platelet count; test: Clinical study: platelet count titration and peripheral blood counts; assay type: in vivo, human
Description: Dosing was tailored using platelet count as a biomarker for the effect of bomedemstat activity on megakaryocyte function and activity. The megakaryocytes, the cell in bone marrow and elsewhere that make platelets, are central to the pathogenesis of myelofibrosis and essential thrombocythemia. In both conditions, somatic mutations in bone marrow stem cells result in mature megakaryocytes that produce excess platelets and biologically active proteins that alter the bone marrow niche as well as spill into the circulation resulting in symptoms characteristic of these conditions such as itching and fatigue.
Dosing of such a treatment can be made more precise by titrating the dose to lower the platelet count to a specific range.
In the Phase 1/2a portion of the study, patients started at the presumed sub-therapeutic dose of 0.25 mg/kg/d. Dose-adjustments were made weekly (the lifespan of a human platelet) with dose-titration, either upward or downward, contingent on platelet values at the time of evaluation. Upward titrations were made in increments of 0.125 or 0.0625 mg/kg/d as shown below. Downward titrations were made in decrements of 50% of the current dose. […] The titration target platelet count expected to be associated with most efficacious therapeutic effect was ≥50,000 to <100,000 μL (50-100×10^9/L). The Phase 1/2a titration and re-challenge rules based on weekly evaluation of platelet counts are noted below in Table 1.
A dose-response curve was subsequently generated that provided a titration algorithm to adjust dose to achieve a target platelet count of between 50,000-75,000 platelets per microliter (k/uL), devised with a view to minimizing the probability of severe thrombocytopenia. Excluding both the highest and lowest doses (total daily doses of 4 mg and 100 mg), the mean total daily dose of Compound 1 needed to achieve a platelet count in the target range was 78.3 mg (S.D. 13.8, range 53-90 mg) or the equivalent of approximately 0.7 to 1.2 mg/kg/d. Accordingly, to enable patients to reach more quickly the optimal dose while still maintaining an adequate safety margin, a new Compound 1 starting dose of 0.5 mg/kg QD was selected for all patients entering the Phase 2B portion of the study. The titration and re-challenge rules were also modified in association with this new target (Table 2).
Subsequent to amending the dosing algorithm, a re-analysis of dosing, response and safety was conducted based on the experience with the first sixteen patients. The mean dose needed to achieve and safely maintain a patient in the range of the target platelet count (the “therapeutic dose”) was 63.8 mg/d or 0.85 mg/kg/d (assuming an average weight of 75 kg). […] In a Phase 3 study, the starting dose is anticipated to be 40 mg with one or two additional dose adjustments made in the subsequent 4-6 weeks.

With `CN1CCN(C(=O)[C@H](CCCN[C@@H]2C[C@H]2c2ccc(F)cc2)NC(=O)c2ccc(-n3ccnn3)cc2)CC1` [Compound 1, N-[(2S)-5-{[(1R, 2S)-2-(4-fluorophenyl)cyclopropyl]amino}-1-(4-methylpiperazin-1-yl)-1-oxopentan-2-yl]-4-(1H-1,2,3-triazol-1-yl)benzamide, bis-tosylate salt] as the compound, how does the “effect on myelofibrosis symptoms” value ([1]; evaluable patients N=14, 85-day cycle) read?
Its value is “profound effect on myelofibrosis symptoms”.

And the “number of patients with improved scores of fatigue” value ([1]; of the first 16 patients, within 14 days)?
Its value is 8.

And the “patients with a decrease in symptom score (MPN-10)” value ([1]; week 24, Phase 1/2a)?
Its value is 89%.

What about the “effect on platelet counts” value ([2]; on treatment) of the same compound?
The value was “reduced platelet counts in all patients”.

What about the lymphocytes counts ([2]; on treatment) of the same compound?
Its lymphocytes counts is “unchanged”.

And the monocyte counts ([2]; on treatment)?
Its monocyte counts is “generally modestly elevated”.

What about the peripheral granulocyte counts ([2]; on treatment) of the same compound?
The peripheral granulocyte counts was “lower on treatment”.

What about the “platelet counts after cessation of treatment” value ([2]; washout) of the same compound?
Its value is “rebounded robustly”.
